Experimental data: ChEMBL document CHEMBL5104172, “Design, synthesis, and antibacterial activity of derivatives of Tryptophanyl-tRNA synthetase inhibitor indolmycin” (Eur J Med Chem, 2022)
Converted amounts (≈) assume the structure as drawn.

Key:
[1] = test system: Staphylococcus aureus; assay: Antibacterial activity against methicillin-sensitive Staphylococcus aureus MSSA17-2 measured by liquid dilution method; type: functional
[2] = test system: Staphylococcus aureus; assay: Antibacterial activity against methicillin-resistant Staphylococcus aureus MRSA17-6 measured by liquid dilution method; type: functional
[3] = test system: Staphylococcus aureus; assay: Antibacterial activity against methicillin-sensitive Staphylococcus aureus MSSA17-3 measured by liquid dilution method; type: functional
[4] = test system: Staphylococcus epidermidis; assay: Antibacterial activity against methicillin-sensitive Staphylococcus epidermidis MSSE17-3 measured by liquid dilution method; type: functional
[5] = test system: Staphylococcus aureus; assay: Antibacterial activity against methicillin-resistant Staphylococcus aureus ATCC 33591 measured by liquid dilution method; type: functional
[6] = test system: Staphylococcus epidermidis; assay: Antibacterial activity against methicillin-resistant Staphylococcus epidermidis MRSE17-4 measured by liquid dilution method; type: functional
[7] = test system: Staphylococcus aureus; assay: Antibacterial activity against methicillin-resistant Staphylococcus aureus MRSA17-2 measured by liquid dilution method; type: functional
[8] = test system: Staphylococcus aureus; assay: Antibacterial activity against vancomycin-intermediate Staphylococcus aureus ATCC 700699 measured by liquid dilution method; type: functional
[9] = test system: Staphylococcus aureus; assay: Antibacterial activity against methicillin-resistant Staphylococcus aureus MRSA17-5 measured by liquid dilution method; type: functional
[10] = test system: Staphylococcus epidermidis; assay: Antibacterial activity against methicillin-resistant Staphylococcus epidermidis MRSE17-6 measured by liquid dilution method; type: functional
[11] = test system: Staphylococcus epidermidis; assay: Antibacterial activity against methicillin-resistant Staphylococcus epidermidis MRSE17-2 measured by liquid dilution method; type: functional
[12] = test system: Enterococcus faecium; assay: Antibacterial activity against Enterococcus faecium EFM17-1 measured by liquid dilution method; type: functional
[13] = test system: Staphylococcus aureus; assay: Antibacterial activity against methicillin-resistant Staphylococcus aureus MRSA17-1 measured by liquid dilution method; type: functional
[14] = test system: Staphylococcus epidermidis; assay: Antibacterial activity against methicillin-resistant Staphylococcus epidermidis MRSE17-1 measured by liquid dilution method; type: functional
[15] = test system: Staphylococcus aureus; assay: Antibacterial activity against methicillin-sensitive Staphylococcus aureus MSSA17-1 measured by liquid dilution method; type: functional
[16] = test system: Staphylococcus aureus; assay: Antibacterial activity against Staphylococcus aureus ATCC 29213 measured by liquid dilution method; type: functional
[17] = test system: Staphylococcus epidermidis; assay: Antibacterial activity against methicillin-resistant Staphylococcus epidermidis MRSE17-3 measured by liquid dilution method; type: functional
[18] = test system: Enterococcus faecalis; assay: Antibacterial activity against Enterococcus faecalis ATCC 29212 measured by liquid dilution method; type: functional
[19] = test system: Enterococcus faecalis; assay: Antibacterial activity against Enterococcus faecalis EFA17-1 measured by liquid dilution method; type: functional
[20] = test system: Enterococcus faecium; assay: Antibacterial activity against Enterococcus faecium EFM17-2 measured by liquid dilution method; type: functional
[21] = test system: Staphylococcus aureus; assay: Antibacterial activity against methicillin-resistant Staphylococcus aureus ATCC 43300 measured by liquid dilution method; type: functional
[22] = test system: Staphylococcus epidermidis; assay: Antibacterial activity against methicillin-sensitive Staphylococcus epidermidis MSSE17-2 measured by liquid dilution method; type: functional
[23] = test system: Staphylococcus aureus; assay: Antibacterial activity against methicillin-resistant Staphylococcus aureus MRSA17-3 measured by liquid dilution method; type: functional
[24] = test system: Staphylococcus epidermidis; assay: Antibacterial activity against methicillin-sensitive Staphylococcus epidermidis MSSE17-1 measured by liquid dilution method; type: functional
[25] = test system: Staphylococcus aureus; assay: Antibacterial activity against vancomycin-intermediate Staphylococcus aureus ATCC 700788 measured by liquid dilution method; type: functional
[26] = Plasma protein binding in CD-1 mouse plasma incubated for 4 hrs at 2 uM measured by LC/MS/MS analysis; type: ADME, cell-free; conditions: read-out: PPB (converted)
[27] = Plasma protein binding in CD-1 mouse plasma incubated for 4 hrs and assessed as unbound fraction at 2 uM measured by LC/MS/MS analysis; type: ADME, cell-free
[28] = test system: Helicobacter pylori; assay: Antibacterial activity against Helicobacter pylori measured by liquid dilution method; type: functional
[29] = test system: Staphylococcus aureus; assay: Antibacterial activity against vancomycin-intermediate Staphylococcus aureus measured by liquid dilution method; type: functional
[30] = Stability in CD-1 mouse whole blood assessed as compound remaining at 2 uM and measured at 10 mins LC-MS/MS analysis; type: ADME, tissue-based; conditions: read-out: Stability
[31] = Stability in CD-1 mouse whole blood assessed as compound remaining at 2 uM and measured at 30 mins LC-MS/MS analysis; type: ADME, tissue-based; conditions: read-out: Stability
[32] = Stability in CD-1 mouse whole blood assessed as compound remaining at 2 uM and measured at 120 mins LC-MS/MS analysis; type: ADME, tissue-based; conditions: read-out: Stability
[33] = Stability in CD-1 mouse whole blood assessed as compound remaining at 2 uM and measured at 60 mins LC-MS/MS analysis; type: ADME, tissue-based; conditions: read-out: Stability

SMILES	MIC [1]	MIC [2]	MIC [3]	MIC [4]	MIC [5]	MIC [6]	MIC [7]	MIC [8]	MIC [9]	MIC [10]	MIC [11]	MIC [12]	MIC [13]	MIC [14]	MIC [15]	MIC [16]	MIC [17]	MIC [18]	MIC [19]	MIC [20]	further results
CNC1=NC(=O)[C@@H]([C@@H](C)c2c[nH]c3c(F)cccc23)O1	4 µg/mL (≈ 14.5 µM)	8 µg/mL (≈ 29.1 µM)	4 µg/mL (≈ 14.5 µM)	> 128 µg/mL	> 128 µg/mL	> 128 µg/mL	8 µg/mL (≈ 29.1 µM)	> 128 µg/mL	8 µg/mL (≈ 29.1 µM)	2 µg/mL (≈ 7.27 µM)	1 µg/mL (≈ 3.63 µM)	> 128 µg/mL	8 µg/mL (≈ 29.1 µM)	4 µg/mL (≈ 14.5 µM)	8 µg/mL (≈ 29.1 µM)	> 128 µg/mL	> 128 µg/mL	> 128 µg/mL	> 128 µg/mL	> 128 µg/mL	MIC [21]: > 128 µg/mL; MIC [22]: 2 µg/mL (≈ 7.27 µM); MIC [23]: 8 µg/mL (≈ 29.1 µM); MIC [24]: 32 µg/mL (≈ 116 µM); MIC [25]: > 128 µg/mL
CNC1=NC(=O)[C@H]([C@H](C)c2c[nH]c3cccc(F)c23)O1	1 µg/mL (≈ 3.63 µM)	0.5 µg/mL (≈ 1.82 µM)	0.5 µg/mL (≈ 1.82 µM)	1 µg/mL (≈ 3.63 µM)	1 µg/mL (≈ 3.63 µM)	1 µg/mL (≈ 3.63 µM)	1 µg/mL (≈ 3.63 µM)	0.5 µg/mL (≈ 1.82 µM)	1 µg/mL (≈ 3.63 µM)	1 µg/mL (≈ 3.63 µM)	1 µg/mL (≈ 3.63 µM)	> 128 µg/mL	0.5 µg/mL (≈ 1.82 µM)	2 µg/mL (≈ 7.27 µM)	1 µg/mL (≈ 3.63 µM)	1 µg/mL (≈ 3.63 µM)	0.5 µg/mL (≈ 1.82 µM)	> 128 µg/mL	> 128 µg/mL	> 128 µg/mL	fraction unbound at 4 h, 2 µM [26]: 0.2; fraction unbound at 4 h, 2 µM [27]: 0.2; MIC [21]: 1 µg/mL (≈ 3.63 µM); MIC [22]: 1 µg/mL (≈ 3.63 µM); MIC [23]: 0.5 µg/mL (≈ 1.82 µM); MIC [24]: 0.5 µg/mL (≈ 1.82 µM); MIC [25]: 0.5 µg/mL (≈ 1.82 µM)
CNC1=NC(=O)[C@H]([C@H](C)c2c[nH]c3cccc(Cl)c23)O1	1 µg/mL (≈ 3.43 µM)	1 µg/mL (≈ 3.43 µM)	0.5 µg/mL (≈ 1.71 µM)	0.5 µg/mL (≈ 1.71 µM)	2 µg/mL (≈ 6.86 µM)	1 µg/mL (≈ 3.43 µM)	1 µg/mL (≈ 3.43 µM)	0.5 µg/mL (≈ 1.71 µM)	1 µg/mL (≈ 3.43 µM)	1 µg/mL (≈ 3.43 µM)	0.5 µg/mL (≈ 1.71 µM)	> 128 µg/mL	1 µg/mL (≈ 3.43 µM)	1 µg/mL (≈ 3.43 µM)	1 µg/mL (≈ 3.43 µM)	2 µg/mL (≈ 6.86 µM)	0.25 µg/mL (≈ 0.857 µM)	> 128 µg/mL	> 128 µg/mL	> 128 µg/mL	fraction unbound at 4 h, 2 µM [26]: 0.134; fraction unbound at 4 h, 2 µM [27]: 0.134; MIC [21]: 1 µg/mL (≈ 3.43 µM); MIC [22]: 0.5 µg/mL (≈ 1.71 µM); MIC [23]: 0.5 µg/mL (≈ 1.71 µM); MIC [24]: 0.25 µg/mL (≈ 0.857 µM); MIC [25]: 1 µg/mL (≈ 3.43 µM)
CNC1=NC(=O)[C@H]([C@H](C)c2c[nH]c3cc(F)ccc23)O1	16 µg/mL (≈ 58.1 µM)	8 µg/mL (≈ 29.1 µM)	8 µg/mL (≈ 29.1 µM)	8 µg/mL (≈ 29.1 µM)	16 µg/mL (≈ 58.1 µM)	16 µg/mL (≈ 58.1 µM)	8 µg/mL (≈ 29.1 µM)	4 µg/mL (≈ 14.5 µM)	16 µg/mL (≈ 58.1 µM)	16 µg/mL (≈ 58.1 µM)	16 µg/mL (≈ 58.1 µM)	> 128 µg/mL	8 µg/mL (≈ 29.1 µM)	16 µg/mL (≈ 58.1 µM)	16 µg/mL (≈ 58.1 µM)	16 µg/mL (≈ 58.1 µM)	4 µg/mL (≈ 14.5 µM)	> 128 µg/mL	> 128 µg/mL	> 128 µg/mL	MIC [21]: 8 µg/mL (≈ 29.1 µM); MIC [22]: 8 µg/mL (≈ 29.1 µM); MIC [23]: 8 µg/mL (≈ 29.1 µM); MIC [24]: 8 µg/mL (≈ 29.1 µM); MIC [25]: 8 µg/mL (≈ 29.1 µM)
CNC1=NC(=O)[C@H]([C@H](C)c2c[nH]c3ccccc23)O1 [INDOMYCIN]	0.5 µg/mL (≈ 1.94 µM)	0.25 µg/mL (≈ 0.972 µM)	0.25 µg/mL (≈ 0.972 µM)	0.5 µg/mL (≈ 1.94 µM)	1 µg/mL (≈ 3.89 µM)	1 µg/mL (≈ 3.89 µM)	0.5 µg/mL (≈ 1.94 µM)	0.125 µg/mL (≈ 0.486 µM)	0.5 µg/mL (≈ 1.94 µM)	1 µg/mL (≈ 3.89 µM)	1 µg/mL (≈ 3.89 µM)	> 128 µg/mL	0.5 µg/mL (≈ 1.94 µM)	1 µg/mL (≈ 3.89 µM)	0.5 µg/mL (≈ 1.94 µM)	0.5 µg/mL (≈ 1.94 µM)	0.25 µg/mL (≈ 0.972 µM)	> 128 µg/mL	> 128 µg/mL	> 128 µg/mL	fraction unbound at 4 h, 2 µM [26]: 0.441; fraction unbound at 4 h, 2 µM [27]: 0.441; MIC90 [28]: 0.031 µg/mL (≈ 0.12 µM); MIC [29]: 0.125 µg/mL (≈ 0.486 µM); MIC [21]: 0.25 µg/mL (≈ 0.972 µM); MIC [22]: 0.5 µg/mL (≈ 1.94 µM); MIC [23]: 0.25 µg/mL (≈ 0.972 µM); MIC [24]: 0.25 µg/mL (≈ 0.972 µM); MIC [25]: 0.25 µg/mL (≈ 0.972 µM)
CC(C)[N+](C)(CCOC(=O)C1c2ccccc2Oc2ccccc21)C(C)C [PROPANTHELINE BROMIDE]																					remaining at 10 min, 2 µM [30]: 93.5%; remaining at 0.5 h, 2 µM [31]: 82.9%; remaining at 2 h, 2 µM [32]: 38.3%; remaining at 1 h, 2 µM [33]: 64.7%
CC(=O)CC(c1ccccc1)c1c(O)c2ccccc2oc1=O (centres undefined) [WARFARIN]																					fraction unbound at 4 h, 2 µM [26]: 0.098; fraction unbound at 4 h, 2 µM [27]: 0.098
